Data on one compound can be found in ChEMBL document CHEMBL5244206, “Recent encounters with atropisomerism in drug discovery” (Bioorg Med Chem Lett, 2018).

This experiment deals with ALK tyrosine kinase receptor (Homo sapiens, UniProt Q9UM73, L1196M). The experiment is described as follows: Binding affinity to human recombinant ALK L1196M mutant (1093 to 1411 residues) assessed as inhibition constant using 5'FAM-KKSRGDYMTMQIG-CONH2 peptide as substrate in presence of ATP by micro-fluidic mobility shift assay.
ALK tyrosine kinase receptor, sequence (Q9UM73 19-1620 L1196M limits assumed): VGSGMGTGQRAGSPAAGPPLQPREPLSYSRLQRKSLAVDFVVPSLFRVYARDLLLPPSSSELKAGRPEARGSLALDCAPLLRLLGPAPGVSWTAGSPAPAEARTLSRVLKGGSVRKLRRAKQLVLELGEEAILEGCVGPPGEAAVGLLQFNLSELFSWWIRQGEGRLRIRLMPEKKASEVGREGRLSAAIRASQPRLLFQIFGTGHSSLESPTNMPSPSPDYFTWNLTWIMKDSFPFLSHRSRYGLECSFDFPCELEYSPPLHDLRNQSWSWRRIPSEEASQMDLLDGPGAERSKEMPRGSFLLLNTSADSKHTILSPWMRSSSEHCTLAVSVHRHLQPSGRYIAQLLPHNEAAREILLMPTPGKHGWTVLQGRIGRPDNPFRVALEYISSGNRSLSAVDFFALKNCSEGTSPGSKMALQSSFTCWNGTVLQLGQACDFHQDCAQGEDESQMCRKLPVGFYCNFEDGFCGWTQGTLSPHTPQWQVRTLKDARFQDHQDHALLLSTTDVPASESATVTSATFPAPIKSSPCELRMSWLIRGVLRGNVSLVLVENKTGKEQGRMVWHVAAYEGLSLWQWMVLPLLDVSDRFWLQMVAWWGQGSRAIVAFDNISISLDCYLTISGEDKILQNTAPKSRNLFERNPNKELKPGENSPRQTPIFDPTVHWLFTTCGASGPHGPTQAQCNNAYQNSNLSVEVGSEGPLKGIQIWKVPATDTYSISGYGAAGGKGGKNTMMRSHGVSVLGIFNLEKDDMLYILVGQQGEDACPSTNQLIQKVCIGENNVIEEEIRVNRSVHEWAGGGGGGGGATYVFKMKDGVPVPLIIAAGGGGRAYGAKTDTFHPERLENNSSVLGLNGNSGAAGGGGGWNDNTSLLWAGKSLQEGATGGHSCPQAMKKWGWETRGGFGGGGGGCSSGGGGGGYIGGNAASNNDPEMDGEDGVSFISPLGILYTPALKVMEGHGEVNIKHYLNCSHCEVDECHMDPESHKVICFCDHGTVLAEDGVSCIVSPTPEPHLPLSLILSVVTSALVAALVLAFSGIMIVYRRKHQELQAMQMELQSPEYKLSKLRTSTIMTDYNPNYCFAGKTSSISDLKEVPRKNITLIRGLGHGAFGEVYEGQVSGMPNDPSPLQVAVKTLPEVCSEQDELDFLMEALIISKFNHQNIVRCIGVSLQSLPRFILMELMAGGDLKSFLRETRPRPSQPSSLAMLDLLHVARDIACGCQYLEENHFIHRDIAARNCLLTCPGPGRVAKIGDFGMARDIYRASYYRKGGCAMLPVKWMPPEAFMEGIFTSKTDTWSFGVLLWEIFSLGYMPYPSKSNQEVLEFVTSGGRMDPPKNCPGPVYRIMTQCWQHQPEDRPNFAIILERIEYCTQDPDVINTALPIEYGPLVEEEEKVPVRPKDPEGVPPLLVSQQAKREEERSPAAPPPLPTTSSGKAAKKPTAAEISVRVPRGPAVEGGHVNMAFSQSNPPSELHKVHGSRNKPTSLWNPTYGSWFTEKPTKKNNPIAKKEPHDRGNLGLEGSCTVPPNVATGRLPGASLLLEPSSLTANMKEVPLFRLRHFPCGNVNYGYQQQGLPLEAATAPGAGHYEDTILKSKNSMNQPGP

In general, Ki refers to a measure of affinity in units of concentration, obtained from inhibition or displacement.

As to `CN1Cc2nn(C)c(C#N)c2-c2cnc(N)c(c2)OCc2cc(F)ccc2C1=O`, the inhibition constant Ki came out at 0.273 µM.
